Source: US6114310A, “Efflux pump inhibitors” (priority 1998, dated 2000)

Tested on: Pseudomonas aeruginosa PAM1001
Test: microbe, parasite or virus in culture
Type: cell-based
Outline: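 Checkerboard broth microdilution (NCCLS) with the efflux pump inhibitor and levofloxacin, each diluted along one axis of the plate, in Mueller Hinton Broth. Inoculum 5×10^5 CFU/ml from early-log culture; incubation 20 h at 35° C. Growth read at 650 nm and visually.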

[1] = Table 1, EPI Conc. μg/ml (number not given; column between 10 and 40 μg/ml)
[2] = Table 2, EPI Conc. μg/ml (number not given; column between 10 and 40 μg/ml)
[3] = Table 3, EPI Conc. μg/ml (number not given; column between 10 and 40 μg/ml)
[4] = Table 4, EPI Conc. μg/ml (number not given; column between 10 and 40 μg/ml)

Compound | Levofloxacin MIC Against P. aeruginosa PAM1001 in Presence of Efflux Pump Inhibitor (EPI), Minimum Inhibitory Concentration (Table 1, EPI Conc. 0 μg/ml) [µg/mL] | Levofloxacin MIC Against P. aeruginosa PAM1001 in Presence of Efflux Pump Inhibitor (EPI), Minimum Inhibitory Concentration (Table 1, EPI Conc. 0.625 μg/ml) [µg/mL] | Levofloxacin MIC Against P. aeruginosa PAM1001 in Presence of Efflux Pump Inhibitor (EPI), Minimum Inhibitory Concentration (Table 1, EPI Conc. 5 μg/ml) [µg/mL] | Levofloxacin MIC Against P. aeruginosa PAM1001 in Presence of Efflux Pump Inhibitor (EPI), Minimum Inhibitory Concentration (Table 1, EPI Conc. 10 μg/ml) [µg/mL] | Levofloxacin MIC Against P. aeruginosa PAM1001 in Presence of Efflux Pump Inhibitor (EPI), Minimum Inhibitory Concentration (Table 1, EPI Conc. 40 μg/ml) [µg/mL] | Levofloxacin MIC Against P. aeruginosa PAM1001 in Presence of Efflux Pump Inhibitor (EPI), Minimum Inhibitory Concentration [1] [µg/mL] | Levofloxacin MIC Against P. aeruginosa PAM1001 in Presence of Efflux Pump Inhibitor (EPI), Minimum Inhibitory Concentration (Table 2, EPI Conc. 0 μg/ml) [µg/mL] | Levofloxacin MIC Against P. aeruginosa PAM1001 in Presence of Efflux Pump Inhibitor (EPI), Minimum Inhibitory Concentration (Table 2, EPI Conc. 0.625 μg/ml) [µg/mL] | Levofloxacin MIC Against P. aeruginosa PAM1001 in Presence of Efflux Pump Inhibitor (EPI), Minimum Inhibitory Concentration (Table 2, EPI Conc. 5 μg/ml) [µg/mL] | Levofloxacin MIC Against P. aeruginosa PAM1001 in Presence of Efflux Pump Inhibitor (EPI), Minimum Inhibitory Concentration (Table 2, EPI Conc. 40 μg/ml) [µg/mL] | Levofloxacin MIC Against P. aeruginosa PAM1001 in Presence of Efflux Pump Inhibitor (EPI), Minimum Inhibitory Concentration [2] [µg/mL] | Levofloxacin MIC Against P. aeruginosa PAM1001 in Presence of Efflux Pump Inhibitor (EPI), Minimum Inhibitory Concentration (Table 3, EPI Conc. 0 μg/ml) [µg/mL] | Levofloxacin MIC Against P. aeruginosa PAM1001 in Presence of Efflux Pump Inhibitor (EPI), Minimum Inhibitory Concentration (Table 3, EPI Conc. 0.625 μg/ml) [µg/mL] | Levofloxacin MIC Against P. aeruginosa PAM1001 in Presence of Efflux Pump Inhibitor (EPI), Minimum Inhibitory Concentration (Table 3, EPI Conc. 5 μg/ml) [µg/mL] | Levofloxacin MIC Against P. aeruginosa PAM1001 in Presence of Efflux Pump Inhibitor (EPI), Minimum Inhibitory Concentration (Table 3, EPI Conc. 10 μg/ml) [µg/mL] | Levofloxacin MIC Against P. aeruginosa PAM1001 in Presence of Efflux Pump Inhibitor (EPI), Minimum Inhibitory Concentration [3] [µg/mL] | Levofloxacin MIC Against P. aeruginosa PAM1001 in Presence of Efflux Pump Inhibitor (EPI), Minimum Inhibitory Concentration (Table 4, EPI Conc. 0 μg/ml) [µg/mL] | Levofloxacin MIC Against P. aeruginosa PAM1001 in Presence of Efflux Pump Inhibitor (EPI), Minimum Inhibitory Concentration (Table 4, EPI Conc. 0.625 μg/ml) [µg/mL] | Levofloxacin MIC Against P. aeruginosa PAM1001 in Presence of Efflux Pump Inhibitor (EPI), Minimum Inhibitory Concentration (Table 4, EPI Conc. 5 μg/ml) [µg/mL] | Levofloxacin MIC Against P. aeruginosa PAM1001 in Presence of Efflux Pump Inhibitor (EPI), Minimum Inhibitory Concentration (Table 4, EPI Conc. 40 μg/ml) [µg/mL] | other results
NCCCC(N)C(=O)N(CCCc1ccccc1)CCC(=O)Nc1ccc2ccccc2c1 (stereo not drawn) [Compound 21 (Table 3), Omithyl-β-(N-phenylpropyl)alanine 2-naphthylamide] | 4 | 4 | 1 | 1 | 0.25 | 0.50 | 4 | 4 | 2 | 0.03 | 0.03 | 4 | 4 | 0.03 | 0.03 | 0.06 | 4 | 4 | 0.50 | 0.015 | Levofloxacin MIC Against P. aeruginosa PAM1001 in Presence of Efflux Pump Inhibitor (EPI), Minimum Inhibitory Concentration (Table 2, EPI Conc. […]): 4 µg/mL; Levofloxacin MIC Against P. aeruginosa PAM1001 in Presence of Efflux Pump Inhibitor (EPI), Minimum Inhibitory Concentration (Table 3, EPI Conc. […]): 2 µg/mL; Levofloxacin MIC Against P. aeruginosa PAM1001 in Presence of Efflux Pump Inhibitor (EPI), Minimum Inhibitory Concentration (Table 4, EPI Conc. […]): 4 µg/mL; Levofloxacin MIC Against P. aeruginosa PAM1001 in Presence of Efflux Pump Inhibitor (EPI), Minimum Inhibitory Concentration [4]: 0.015 µg/mL
D-Ornithyl-β-[N-(isobutyl)]alanine quinoline-3-amide [Compound 40 (Table 3)] | 4 | 4 | 1 | 0.06 | 0.015 | 0.03 | 4 | 4 | 1 | 0.06 | 0.06 | 4 | 4 | 0.06 | 0.015 | 0.015 | 4 | 4 | 1 | 0.06 | Levofloxacin MIC Against P. aeruginosa PAM1001 in Presence of Efflux Pump Inhibitor (EPI), Minimum Inhibitory Concentration (Table 1, EPI Conc. […]): 4 µg/mL; Levofloxacin MIC Against P. aeruginosa PAM1001 in Presence of Efflux Pump Inhibitor (EPI), Minimum Inhibitory Concentration (Table 2, EPI Conc. 10 μg/ml): 0.06 µg/mL; Levofloxacin MIC Against P. aeruginosa PAM1001 in Presence of Efflux Pump Inhibitor (EPI), Minimum Inhibitory Concentration (Table 3, EPI Conc. 40 μg/ml): 0.015 µg/mL; Levofloxacin MIC Against P. aeruginosa PAM1001 in Presence of Efflux Pump Inhibitor (EPI), Minimum Inhibitory Concentration (Table 4, EPI Conc. 10 μg/ml): 0.25 µg/mL; Levofloxacin MIC Against P. aeruginosa PAM1001 in Presence of Efflux Pump Inhibitor (EPI), Minimum Inhibitory Concentration [4]: 0.06 µg/mL
